Assay results: patent publication US20210047324A1 (Aptinyx Inc., priority 2018, published 2021)

Experiments:
NMDAR2B = molecular target: T1, NMDAR2B (Homo sapiens, UniProt Q13224); assay: NMDAR agonist assay, [3H]MK-801 binding, NMDAR2B expressing HEK cell membranes; assay type: biochemical; details: 50 μM glutamate; for EC50: read-out: NMDAR2B B: log EC50 (converted); for Emax: read-out: NMDAR2B A: % maximal [3H]MK-801 binding relative to 1 mM glycine
T1 construct: expressed in transfected cells; host or cells: HEK cells (membrane extract)
Procedure: (§1) Assays were conducted as described by Moskal et al., “GLYX-13: a monoclonal antibody-derived peptide that acts as an N-methyl-D-aspartate receptor modulator,” Neuropharmacology, 49, 1077-87, 2005. These studies were designed to determine if the test compounds act to facilitate NMDAR activation in NMDAR2A, NMDAR2B, NMDAR2C or NMDAR2D expressing HEK cell membranes as measured by increases in [^3H]MK-801 binding.
(§2) In the assay, 300 μg of NMDAR expressing HEK cell membrane extract protein was preincubated for 15 minutes at […] in the presence of saturating concentrations of glutamate (50 μM) and varying concentrations of test compound (1×10^−15M-1×10^−7M), or 1 mM glycine. Following the addition of 0.3 μCi of [3H]MK-801 (22.5 Ci/mmol), reactions were again incubated for 15 minutes at 25° C. (nonequilibrium conditions). Bound and free [3H]MK-801 were separated via rapid filtration using a Brandel apparatus.
(§3) In analyzing the data, the DPM (disintegrations per minute) of [3H]MK-801 remaining on the filter were measured for each concentration of test compound or for 1 mM glycine. The DPM values for each concentration of a ligand (N=2) were averaged. The baseline value was determined from the best fit curve of the DPM values modeled using the GraphPad program and the log(agonist) vs. response (three parameters) algorithm was then subtracted from all points in the dataset. The % maximal [^3H]MK-801 binding was then calculated relative to that of 1 mM glycine: all baseline subtracted DPM values were divided by the average value for 1 mM glycine. The EC50 and % maximal activity were then obtained from the best fit curve of the % maximal [3H]MK-801 binding data modelled using the GraphPad program and the log(agonist) vs. response (three parameters) algorithm.
(§4) The tables below summarize the results for the wild type […] NMDAR2A, NMDAR2B, NMDAR2C, and NMDAR2D, and whether the compound is not an agonist (−), is an agonist (+), or is a strong agonist (++), where column A is based on the % maximal [3H]MK-801 binding relative to 1 mM glycine (−=0; <100%=+; and >100%=++); and column B is based on log EC50 values (0=−; ≥1×10^−9 M (e.g., −8)=+; and <1×10^−9 M (e.g., −10)=++).

[1] = IV pharmacokinetics in Sprague Dawley rats; assay type: in vivo; details: Sprague-Dawley, rat, in vivo, iv, 2 mg/kg, normal saline; for Cmax: read-out: Cmax; for Vd: read-out: Vss
Procedure: Sprague Dawley rats were dosed intravenously using a normal saline formulation containing 2 mg/kg of the compounds identified in the below table. The table below summarizes the results of the IV pharmacokinetics.

Plasma stability (Human) = assay type: in vitro ADME; details: after 60 minutes
Procedure: (§5) Plasma stability of disclosed compounds was investigated. The following table indicates the percent of compound remaining after 60 minutes.

NMDAR2A = molecular target: T2, NMDAR2A (Homo sapiens, UniProt Q12879); assay: NMDAR agonist assay, [3H]MK-801 binding, NMDAR2A expressing HEK cell membranes; assay type: biochemical; details: 50 μM glutamate; for EC50: read-out: NMDAR2A B: log EC50 (converted); for Emax: 0.25 h, read-out: NMDAR2A A: % maximal [3H]MK-801 binding relative to 1 mM glycine; for NMDAR2A A: % maximal [3H]MK-801 binding relative to 1 mM glycine / Emax: relative to 1 mM glycine
T2 construct: expressed in transfected cells; host or cells: HEK cells (membrane extract)
Procedure: as §1, §2, §3, §4

[2] = Oral pharmacokinetics in Sprague Dawley rats (plasma, brain, CSF); assay type: in vivo; details: rat, 10 mg/kg; for Tmax / AUC(0-t) / bioavailability / Cmax: Sprague-Dawley, po, plasma; for Tmax / AUC(0-t) / Cmax / CSF Cmax / Brain Cmax: per os; for Tmax: read-out: Tmax; for bioavailability: per os 10 mg/kg; for Cmax: read-out: Cmax
Procedure: In another experiment, Sprague Dawley rats were dosed per os (oral gavage) using a normal saline formulation containing 10 mg/kg of the compounds identified in the table below. Plasma, brain, and CSF samples were analyzed at various time points over a 24 hour period. The table below summarizes the results of the oral pharmacokinetics, where the first three values (Tmax, Cmax and AUClast) are plasma values.

Plasma stability (Rat) = assay type: in vitro ADME; details: after 60 minutes
Procedure: as §5

[3] = Microsomal stability (Rat); assay type: in vitro ADME; details: after 60 minutes
Procedure: (§6) Microsomal stability of disclosed compounds was investigated. The following table indicates the percent of compound remaining after 60 minutes.

[4] = Microsomal stability (Human); assay type: in vitro ADME; details: after 60 minutes
Procedure: as §6

Sprague Dawley rats = assay: Porsolt forced swim test; assay type: in vivo; details: 1 h post-dose, 0.1 mg/kg
Procedure: A non-clinical in vivo pharmacology study (Porsolt assay) was performed to measure antidepressant-like effects. The study allowed for the evaluation of the effects of each compound on the Porsolt forced swim test as assessed by the rats' response (reduced floating time) during a 5-minute swimming test.
Male 2-3 month old Sprague Dawley rats were used (Harlan, Indianapolis, Ind.). Rats were housed in Lucite cages with aspen wood chip bedding, maintained on a 12:12 light:dark cycle (lights on at 5 AM), and given ad libitum access to Purina lab chow (USA) and tap water throughout the study.
The Porsolt forced swim test adapted for use in rats was performed as described by Burgdorf et al., (The long-lasting antidepressant effects of rapastinel (GLYX-13) are associated with a metaplasticity process in the medial prefrontal cortex and hippocampus. Neuroscience 308:202-211, 2015). Animals were placed in a 46 cm tall×20 cm in diameter clear glass tube filled to 30 cm with tap water (23±1° C.) for 15 min on the first day (habituation) and 5 min on the subsequent test day. Animals were tested 1 h or 24 h post-dosing with the test compounds or vehicle control (0.5% sodium carboxymethyl cellulose in 0.9% sterile saline). A subset of compounds tested at 1 h post-dosing was tested again 1 wk post-dosing. Animals received a 15 min habituation session 1 day before the first 5 min test. Water was changed after every other animal. Animals were videotaped, and floating time as defined as the minimal amount of effort required to keep the animals head above water was scored offline by a blinded experimenter with high inter-rater reliability (Pearson's r >0.9).

T2 sequence (Q12879 23-1464, species assumed, other chains not shown): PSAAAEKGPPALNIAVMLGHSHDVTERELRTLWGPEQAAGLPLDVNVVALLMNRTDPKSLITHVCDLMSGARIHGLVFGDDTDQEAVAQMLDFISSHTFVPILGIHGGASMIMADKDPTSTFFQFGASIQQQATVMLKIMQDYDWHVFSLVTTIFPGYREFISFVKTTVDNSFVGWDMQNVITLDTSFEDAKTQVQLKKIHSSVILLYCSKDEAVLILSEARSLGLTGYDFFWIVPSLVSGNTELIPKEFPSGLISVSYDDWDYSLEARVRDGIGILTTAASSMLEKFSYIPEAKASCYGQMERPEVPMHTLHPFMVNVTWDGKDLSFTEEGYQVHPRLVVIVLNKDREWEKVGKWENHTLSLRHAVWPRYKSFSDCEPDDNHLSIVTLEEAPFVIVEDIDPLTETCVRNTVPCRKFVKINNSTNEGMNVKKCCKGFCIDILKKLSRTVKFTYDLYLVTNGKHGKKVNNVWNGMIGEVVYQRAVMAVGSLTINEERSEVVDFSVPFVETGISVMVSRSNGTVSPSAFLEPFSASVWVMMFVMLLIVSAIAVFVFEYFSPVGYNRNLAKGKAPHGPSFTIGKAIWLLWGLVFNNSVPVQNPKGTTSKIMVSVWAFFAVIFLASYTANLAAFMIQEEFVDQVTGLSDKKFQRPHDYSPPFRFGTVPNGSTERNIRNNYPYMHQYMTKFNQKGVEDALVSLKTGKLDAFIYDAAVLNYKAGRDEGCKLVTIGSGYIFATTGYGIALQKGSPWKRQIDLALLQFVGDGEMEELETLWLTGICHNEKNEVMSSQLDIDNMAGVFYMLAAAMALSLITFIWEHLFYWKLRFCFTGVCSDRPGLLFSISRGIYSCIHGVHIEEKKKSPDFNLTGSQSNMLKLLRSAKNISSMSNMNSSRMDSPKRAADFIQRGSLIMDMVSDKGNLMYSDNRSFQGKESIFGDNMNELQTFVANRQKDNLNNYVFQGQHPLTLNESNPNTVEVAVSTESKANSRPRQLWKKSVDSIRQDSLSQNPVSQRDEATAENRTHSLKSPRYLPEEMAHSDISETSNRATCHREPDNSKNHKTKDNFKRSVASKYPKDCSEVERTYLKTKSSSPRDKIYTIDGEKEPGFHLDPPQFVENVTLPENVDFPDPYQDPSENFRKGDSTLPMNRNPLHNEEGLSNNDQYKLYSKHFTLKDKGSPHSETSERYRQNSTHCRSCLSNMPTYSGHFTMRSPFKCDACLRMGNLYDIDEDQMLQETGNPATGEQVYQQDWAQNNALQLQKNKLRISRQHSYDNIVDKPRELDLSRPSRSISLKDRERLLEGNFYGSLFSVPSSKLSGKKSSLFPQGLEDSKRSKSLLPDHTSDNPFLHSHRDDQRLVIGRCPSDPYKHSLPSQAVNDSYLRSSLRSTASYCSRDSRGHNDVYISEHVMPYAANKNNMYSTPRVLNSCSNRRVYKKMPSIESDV
T1 sequence (Q13224 27-1484, species assumed, other chains not shown): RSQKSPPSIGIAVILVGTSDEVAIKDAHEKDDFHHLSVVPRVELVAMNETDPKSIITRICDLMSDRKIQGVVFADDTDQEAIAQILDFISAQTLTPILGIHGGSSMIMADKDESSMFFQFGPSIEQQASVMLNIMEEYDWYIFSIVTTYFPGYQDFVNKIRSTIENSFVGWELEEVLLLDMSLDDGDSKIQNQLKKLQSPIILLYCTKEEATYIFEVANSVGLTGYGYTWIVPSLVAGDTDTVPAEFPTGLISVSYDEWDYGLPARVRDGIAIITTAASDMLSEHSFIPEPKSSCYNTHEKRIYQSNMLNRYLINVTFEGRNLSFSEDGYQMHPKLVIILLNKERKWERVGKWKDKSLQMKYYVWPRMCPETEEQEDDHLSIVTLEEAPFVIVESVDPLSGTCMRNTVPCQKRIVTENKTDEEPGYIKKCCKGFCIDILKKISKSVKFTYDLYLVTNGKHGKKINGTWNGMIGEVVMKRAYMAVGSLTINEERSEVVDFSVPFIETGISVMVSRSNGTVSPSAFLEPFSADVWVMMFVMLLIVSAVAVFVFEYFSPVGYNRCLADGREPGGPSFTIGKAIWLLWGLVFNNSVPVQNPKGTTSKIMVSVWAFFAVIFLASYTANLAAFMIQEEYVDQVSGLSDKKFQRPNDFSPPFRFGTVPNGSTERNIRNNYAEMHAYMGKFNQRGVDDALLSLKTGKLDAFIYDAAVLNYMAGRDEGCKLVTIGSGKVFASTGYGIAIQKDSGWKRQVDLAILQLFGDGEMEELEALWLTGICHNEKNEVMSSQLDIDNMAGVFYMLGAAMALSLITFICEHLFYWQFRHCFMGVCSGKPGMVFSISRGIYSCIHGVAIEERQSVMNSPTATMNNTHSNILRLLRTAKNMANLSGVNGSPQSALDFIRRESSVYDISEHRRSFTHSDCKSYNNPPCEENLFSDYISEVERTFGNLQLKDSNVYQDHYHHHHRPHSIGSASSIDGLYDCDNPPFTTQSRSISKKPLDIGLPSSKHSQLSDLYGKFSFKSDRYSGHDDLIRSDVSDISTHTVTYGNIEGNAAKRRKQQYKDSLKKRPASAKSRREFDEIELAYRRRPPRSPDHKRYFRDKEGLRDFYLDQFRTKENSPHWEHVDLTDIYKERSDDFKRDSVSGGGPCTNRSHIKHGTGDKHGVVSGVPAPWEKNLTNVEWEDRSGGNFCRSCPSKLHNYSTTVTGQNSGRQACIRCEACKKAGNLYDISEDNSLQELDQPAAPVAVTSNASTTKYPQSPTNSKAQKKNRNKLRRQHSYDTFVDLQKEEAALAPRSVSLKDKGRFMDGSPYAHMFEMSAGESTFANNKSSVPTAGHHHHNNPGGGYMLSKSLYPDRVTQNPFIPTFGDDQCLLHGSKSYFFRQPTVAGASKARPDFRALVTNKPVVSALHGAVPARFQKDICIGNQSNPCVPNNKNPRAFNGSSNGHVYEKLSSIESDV

| Compound | EC50 (NMDAR2B) [nM] | AUC(0-t) [1] [ng·h/mL] | clearance [1] [mL/min/kg] | half-life [1] [min] | Cmax [1] [ng/mL] | Vd [1] [L/kg] | Plasma (Human): percent of compound remaining (Plasma stability (Human)) [%] | EC50 (NMDAR2A) [nM] | Tmax [2] [min] | AUC(0-t) [2] [ng·h/mL] | bioavailability [2] [%] | Cmax [2] [ng/mL] | CSF Cmax [2] [ng/mL] | Brain Cmax [2] [ng/mL] | Plasma (Rat): percent of compound remaining (Plasma stability (Rat)) [%] | Microsomal (Rat): percent of compound remaining [3] [%] | Microsomal (Human): percent of compound remaining [4] [%] | Emax (NMDAR2B; relative to 1 mM glycine) [%] | Emax (NMDAR2A) [%] | also measured |
| --- | --- | --- | --- | --- | --- | --- | --- | --- | --- | --- | --- | --- | --- | --- | --- | --- | --- | --- | --- | --- |
| CC(C)CN1CCCC12CC=CCNC2=O (single isomer, unassigned) [GI-2, 1-isobutyl-1,7-diazaspiro[4.6]undec-9-en-6-one] | < 1 | 326 | 101 | 19.2 | 976 | 2.25 | 99 | < 1 | 25.2 | 150 | 9 | 132 | 205.53 | 97.39 | 104 | 102 | 114 |  |  | NMDAR2B A: % maximal [3H]MK-801 binding relative to 1 mM glycine (NMDAR2B; relative to 1 mM glycine): + (<100%=+); NMDAR2A A: % maximal [3H]MK-801 binding relative to 1 mM glycine (NMDAR2A): + (<100%=+) |
| O=C1NCCCCC12CCCCN2 (single isomer, unassigned) [AZ, 1,8-diazaspiro[5.6]dodecan-7-one] | < 1 | 15400 | 2.17 | 255 | 17900 | 0.17 | 101 | < 1 | 60 | 74300 | 97 | 29100 | 5343.89 | 8074.7 | 101 | 91 | 92 | < 100 | < 100 |  |
| O=C1NCCCCC12CCCNC2 (single isomer, unassigned) [CF, 2,8-diazaspiro[5.6]dodecan-7-one] | < 1 | 1110 | 29.9 | 108 | 1990 | 2.85 | 107 | < 1 | 120 | 1830 | 33 | 556 | 51.64 | 48.22 | 91 | 88 | 91 | < 100 | < 100 |  |
| CC(=O)N1CCCC12CC=CCNC2=O (single isomer, unassigned) [GG-2, 1-acetyl-1,7-diazaspiro[4.6]undec-9-en-6-one] | < 1 | 2550 | 13.1 | 32.4 | 3420 | 0.58 | 99 | < 1 | 15 | 19600 | 100 | 9200 | 2271.94 | 1689.69 | 101 | 106 | 88 |  |  | % reduction in float time (Sprague Dawley rats): 4%; Significance vs. vehicle (Sprague Dawley rats): No |
| O=C1NCCCC12CCCCN2 (single isomer, unassigned) [AX, 1,8-diazaspiro[5.5]undecan-7-one] | ≥ 1 | 1360 | 24.4 | 549 | 1420 | 3.31 | 105 | < 1 | 60 | 6680 | 98 | 2560 | 342.07 | 1547.36 | 99 | 120 | 93 | < 100 | < 100 |  |

More lines, main results first:

| EC50 (NMDAR2B) [nM] | AUC(0-t) [1] [ng·h/mL] | clearance [1] [mL/min/kg] | half-life [1] [min] | Cmax [1] [ng/mL] | Vd [1] [L/kg] | Plasma (Human): percent of compound remaining (Plasma stability (Human)) [%] | EC50 (NMDAR2A) [nM] | Tmax [2] [min] | AUC(0-t) [2] [ng·h/mL] | bioavailability [2] [%] | Cmax [2] [ng/mL] | CSF Cmax [2] [ng/mL] | Brain Cmax [2] [ng/mL] | Plasma (Rat): percent of compound remaining (Plasma stability (Rat)) [%] | Microsomal (Rat): percent of compound remaining [3] [%] | Microsomal (Human): percent of compound remaining [4] [%] | Emax (NMDAR2B; relative to 1 mM glycine) [%] | Compound | Emax (NMDAR2A) [%] | also measured |
| --- | --- | --- | --- | --- | --- | --- | --- | --- | --- | --- | --- | --- | --- | --- | --- | --- | --- | --- | --- | --- |
| < 1 | 210 | 157 | 39.6 | 421 | 6.5 | 101 | < 1 | 34.8 | 9.16 | 1 | 23.3 | 0 | 0 | 96 | 3 | 72 | < 100 | CN1CC=CCC2(CCCN2Cc2ccccc2)C1=O (single isomer, unassigned) [GT-1, 1-benzyl-7-methyl-1,7-diazaspiro[4.6]undec-9-en-6-one] | < 100 |  |
| < 1 | 1140 | 29.3 | 10.8 | 5850 | 0.36 | 82 |  | 15 | 2100 | 37 | 4620 | 0 | 0 | 89 | 94 | 96 | < 100 | CC(C)C(=O)N1CCC2(CCCN2C(=O)C(C)C)C1=O (single isomer, unassigned) [GU-1, 1,1′-(6-oxo-1,7-diazaspiro[4.4]nonane-1,7-diyl)bis(2-methylpropan-1-one)] |  | NMDAR2A A: % maximal [3H]MK-801 binding relative to 1 mM glycine (NMDAR2A): 0% |
